Nine compounds from patent US11578068B2, “Oxadiazole derivatives as Rho-Kinase Inhibitors” (Chiesi Farmaceutici S.p.A., priority 2017, dated 2023) can be followed below.

For one test, the target named is ROCK1 (Homo sapiens, UniProt Q13464). Put plainly: In vitro Rho kinase inhibitory activity assay (ADP-Glo), Rho kinase 1. The settings on record: Ki by Cheng-Prusoff from IC50; 10 μM ATP, 25° C., Myelin Basic Protein substrate; range of activity. Format: biochemical. The procedure: (§1) The effectiveness of compounds of the invention to inhibit Rho kinase activity can be determined in a 10 μl assay containing 40 mM Tris pH7.5, 20 mM MgCl2 0.1 mg/ml BSA, 50 μM DTT and 2.5 μM peptide substrate (Myelin Basic Protein) using an ADP-Glo kit (Promega). Compounds were dissolved in DMSO such that the final concentration of DMSO was 1% in the assay. All reactions/incubations are performed at 25° C. Compound (2 ul) and either Rho kinase 1 or 2 (4 μl) were mixed and incubated for 30 mins. Reactions were initiated by addition of ATP (4 μl) such that the final concentration of ATP in the assay was 10 μM. After a 1 hour incubation 10 μl of ADP-Glo Reagent was added and after a further 45 minute incubation 20 ul of Kinase Detection Buffer was added and the mixture incubated for a further 30 minutes. The luminescent signal was measured on a luminometer. […] Compounds were tested in dose-response format and the inhibition of kinase activity was calculated at each concentration of compound. To determine the IC50 (concentration of compound required to inhibit 50% of the enzyme activity) data were fit to a plot of % inhibition vs Log 10 compound concentration using a sigmoidal fit with a variable slope and fixing the maximum to 100% and the minimum to 0%. To determine the Ki values the Cheng-Prusoff equation was utilized (Ki=IC50/(1+[S]/Km)

A further test deals with ROCK2 (Homo sapiens, UniProt O75116). Briefly: In vitro Rho kinase inhibitory activity assay (ADP-Glo), Rho kinase 2. The test is classed as biochemical. The settings on record: Ki by Cheng-Prusoff from IC50; 10 μM ATP, 25° C., Myelin Basic Protein substrate; range of activity. The procedure:
as §1

Structures are written as SMILES.

ROCK2, sequence (O75116 whole entry): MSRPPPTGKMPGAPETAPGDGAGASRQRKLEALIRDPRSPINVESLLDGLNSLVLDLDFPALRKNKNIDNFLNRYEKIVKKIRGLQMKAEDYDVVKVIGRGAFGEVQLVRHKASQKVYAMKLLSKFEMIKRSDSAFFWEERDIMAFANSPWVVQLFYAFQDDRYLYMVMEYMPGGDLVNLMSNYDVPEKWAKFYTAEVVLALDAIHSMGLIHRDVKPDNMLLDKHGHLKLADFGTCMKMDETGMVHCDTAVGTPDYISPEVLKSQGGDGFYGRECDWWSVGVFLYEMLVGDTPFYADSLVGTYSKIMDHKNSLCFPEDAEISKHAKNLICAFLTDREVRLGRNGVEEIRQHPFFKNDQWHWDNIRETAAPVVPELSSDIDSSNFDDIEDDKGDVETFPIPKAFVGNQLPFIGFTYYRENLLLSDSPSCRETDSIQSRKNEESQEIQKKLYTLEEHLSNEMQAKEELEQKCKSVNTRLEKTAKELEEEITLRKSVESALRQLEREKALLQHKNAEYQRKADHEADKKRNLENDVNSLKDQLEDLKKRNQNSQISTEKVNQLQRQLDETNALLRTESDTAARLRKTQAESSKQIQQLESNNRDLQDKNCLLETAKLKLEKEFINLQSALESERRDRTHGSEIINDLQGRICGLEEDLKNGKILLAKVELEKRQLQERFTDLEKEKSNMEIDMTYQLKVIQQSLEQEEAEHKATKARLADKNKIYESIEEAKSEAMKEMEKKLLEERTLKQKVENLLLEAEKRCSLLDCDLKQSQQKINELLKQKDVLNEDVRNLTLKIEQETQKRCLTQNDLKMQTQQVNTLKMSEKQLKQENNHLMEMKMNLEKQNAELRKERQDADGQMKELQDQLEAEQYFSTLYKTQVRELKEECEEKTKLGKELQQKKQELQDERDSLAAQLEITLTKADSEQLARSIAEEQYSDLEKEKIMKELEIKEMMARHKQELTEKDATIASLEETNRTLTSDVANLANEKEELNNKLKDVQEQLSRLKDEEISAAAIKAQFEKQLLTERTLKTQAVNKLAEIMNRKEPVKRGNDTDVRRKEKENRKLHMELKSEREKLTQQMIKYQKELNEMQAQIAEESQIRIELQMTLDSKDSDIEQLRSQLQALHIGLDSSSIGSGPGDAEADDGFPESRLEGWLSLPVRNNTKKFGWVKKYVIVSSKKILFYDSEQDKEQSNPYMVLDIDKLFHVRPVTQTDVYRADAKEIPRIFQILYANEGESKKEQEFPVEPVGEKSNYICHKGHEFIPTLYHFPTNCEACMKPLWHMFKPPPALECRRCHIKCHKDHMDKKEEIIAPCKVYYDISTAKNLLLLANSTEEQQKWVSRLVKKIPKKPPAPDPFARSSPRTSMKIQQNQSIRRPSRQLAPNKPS
ROCK1, sequence (Q13464 whole entry): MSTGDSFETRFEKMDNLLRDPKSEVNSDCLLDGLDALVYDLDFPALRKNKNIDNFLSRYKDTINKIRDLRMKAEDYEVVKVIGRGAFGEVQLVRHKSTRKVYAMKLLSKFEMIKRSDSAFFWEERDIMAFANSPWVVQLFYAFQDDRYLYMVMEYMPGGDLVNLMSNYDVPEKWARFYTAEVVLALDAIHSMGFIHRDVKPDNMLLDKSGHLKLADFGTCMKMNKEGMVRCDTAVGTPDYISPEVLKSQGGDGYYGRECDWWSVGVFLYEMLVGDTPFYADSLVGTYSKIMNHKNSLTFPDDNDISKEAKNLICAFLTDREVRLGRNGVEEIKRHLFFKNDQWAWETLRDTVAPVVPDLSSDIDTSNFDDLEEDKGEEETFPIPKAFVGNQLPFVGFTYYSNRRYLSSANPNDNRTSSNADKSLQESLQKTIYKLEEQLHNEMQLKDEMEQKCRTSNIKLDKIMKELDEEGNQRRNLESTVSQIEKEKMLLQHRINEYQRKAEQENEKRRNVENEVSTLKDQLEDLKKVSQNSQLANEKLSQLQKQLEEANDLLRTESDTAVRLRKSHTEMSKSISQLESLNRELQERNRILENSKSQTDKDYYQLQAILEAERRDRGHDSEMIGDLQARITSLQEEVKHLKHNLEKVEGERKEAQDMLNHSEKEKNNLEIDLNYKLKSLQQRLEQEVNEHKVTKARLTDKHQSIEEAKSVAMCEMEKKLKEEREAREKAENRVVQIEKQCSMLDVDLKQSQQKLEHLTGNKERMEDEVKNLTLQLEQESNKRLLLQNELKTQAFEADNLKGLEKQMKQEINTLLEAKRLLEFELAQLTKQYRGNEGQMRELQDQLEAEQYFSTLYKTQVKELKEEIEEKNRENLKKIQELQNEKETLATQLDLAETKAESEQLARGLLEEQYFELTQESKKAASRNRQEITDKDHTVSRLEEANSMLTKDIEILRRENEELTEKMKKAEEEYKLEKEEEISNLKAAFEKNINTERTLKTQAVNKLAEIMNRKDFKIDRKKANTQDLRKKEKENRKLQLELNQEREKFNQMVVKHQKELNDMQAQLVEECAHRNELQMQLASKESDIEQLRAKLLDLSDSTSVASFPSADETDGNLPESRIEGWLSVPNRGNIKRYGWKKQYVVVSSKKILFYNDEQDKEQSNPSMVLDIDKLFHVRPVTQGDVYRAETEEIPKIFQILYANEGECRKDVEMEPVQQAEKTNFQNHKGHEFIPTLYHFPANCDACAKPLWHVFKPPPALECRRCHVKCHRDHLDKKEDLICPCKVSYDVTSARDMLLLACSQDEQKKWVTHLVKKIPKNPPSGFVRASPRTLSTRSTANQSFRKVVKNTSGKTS

With `Cc1c[nH]c2nccc(Oc3ccc(C[C@H](N)c4nc(CCCN(C)C)no4)cc3F)c12` [Example 6, (S)-3-(5-(1-amino-2-(3-fluoro-4-((3-methyl-1H-pyrrolo[2,3-b]pyridin-4-yl)oxy)phenyl)ethyl)-1,2,4-oxadiazol-3-yl)-N,N-dimethylpropan-1-amine], the Ki at ROCK1 and at ROCK2 was 5 to 50 nM throughout.
`Cc1c[nH]c2nccc(Oc3ccc(C[C@H](N)c4nc(-c5ccccc5)no4)cc3F)c12` [Example 1, (S)-2-(3-fluoro-4((3-methyl-1H-pyrrolo[2,3-b]pyridin-4-yl)oxy)phenyl)-1-(3-phenyl-1,2,4-oxadiazol-5-yl)ethanamine]: the Ki on ROCK1 and on ROCK2 was 5 to 50 nM each time.
Take `Cc1c[nH]c2nccc(Oc3ccc(C[C@H](N)c4nnc(Cc5ccccc5)o4)cc3F)c12` [Example 9, (S)-1-(5-benzyl-1,3,4-oxadiazol-2-yl)-2-(3-fluoro-4-((3-methyl-1H-pyrrolo [2,3-b]pyridin-4-yl)oxy)phenyl)ethanamine]: the Ki on ROCK1 and on ROCK2 was < 5 nM in each case.
`Cc1c[nH]c2nccc(Oc3ccc(C[C@H](N)c4nc(-c5cccnc5)no4)cc3F)c12` [Example 5, (S)-2-(3-fluoro-4-((3-methyl-1H-pyrrolo[2,3-b]pyridin-4-yl)oxy)phenyl)-1-(3-(pyridin-3-yl)-1,2,4-oxadiazol-5-yl)ethanamine]: the Ki on ROCK1 and at ROCK2 was 5 to 50 nM each time.
For the compound `Cc1c[nH]c2nccc(Oc3ccc(C[C@H](N)c4nc(CCc5ccccc5)no4)cc3F)c12` [Example 4, (S)-2-(3-fluoro-4-((3-methyl-1H-pyrrolo[2,3-b]pyridin-4-yl)oxy)phenyl)-1-(3-phenethyl-1,2,4-oxadiazol-5-yl)ethanamine], the Ki on ROCK1 and at ROCK2 was < 5 nM in each case.
`Cc1c[nH]c2nccc(Oc3ccc(CC(CN)c4nc(CCc5ccccc5)no4)cc3F)c12` (stereo not drawn) [Example 8, 3-(3-fluoro-4-((3-methyl-1H-pyrrolo[2,3-b]pyridin-4-yl)oxy)phenyl)-2-(3-phenethyl-1,2,4-oxadiazol-5-yl)propan-1-amine]: the Ki at ROCK1 and at ROCK2 was < 5 nM in each case.
On to `N[C@@H](Cc1ccc(Oc2ccnc3[nH]ccc23)cc1)c1nc(-c2ccccc2)no1` [Example 7, (S)-2-(4-((1H-pyrrolo[2,3-b]pyridin-4-yl)oxy)phenyl)-1-(3-phenyl-1,2,4-oxadiazol-5-yl)ethanamine], for which the Ki on ROCK1 and on ROCK2 was > 50 nM throughout.
As to `Cc1noc([C@@H](N)Cc2ccc(Oc3ccnc4[nH]cc(C)c34)c(F)c2)n1` [Example 3, (S)-2-(3-fluoro-4-((3-methyl-1H-pyrrolo[2,3-b]pyridin-4-yl)oxy)phenyl)-1-(3-methyl-1,2,4-oxadiazol-5-yl)ethanamine], the Ki on ROCK1 and on ROCK2 was 5 to 50 nM each time.
Turning to `COCCc1noc([C@@H](N)Cc2ccc(Oc3ccnc4[nH]cc(C)c34)c(F)c2)n1` [Example 2, (S)-2-(3-fluoro-4-((3-methyl-1H-pyrrolo[2,3-b]pyridin-4-yl)oxy)phenyl)-1-(3-(2-methoxyethyl)-1,2,4-oxadiazol-5-yl)ethanamine], the Ki at ROCK1 and at ROCK2 was 5 to 50 nM each time.
